Test results taken from paper PMC5978685, “Design, Synthesis, and Evaluation of Novel Immunomodulatory Small Molecules Targeting the CD40–CD154 Costimulatory Protein-Protein Interaction” (Molecules : A Journal of Synthetic Chemistry and Natural …, 2018).
Entries after “also recorded” stand apart in the source; their conditions may differ. Like-named read-outs stand apart in the source and are kept apart here.

Assays:
OX40–OX40L = molecular target: T1, OX40–OX40L (Homo sapiens, UniProt P23510); assay: cell-free ELISA-type binding inhibition assay, OX40–OX40L
T1 construct: purchased Enzo Life Sciences
T1 sequence (P23510 51-183 limits assumed): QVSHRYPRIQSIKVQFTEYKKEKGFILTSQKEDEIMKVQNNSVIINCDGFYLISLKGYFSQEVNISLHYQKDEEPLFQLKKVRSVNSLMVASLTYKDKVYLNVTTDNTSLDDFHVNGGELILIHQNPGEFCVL
Experimental: (§1) In parallel with the CD40–CD154 assay, the ability of these compounds to inhibit other TNFSFR–TNFSF PPIs, including OX40–OX40L, BAFFR–BAFF, and TNF-R1–TNF-α, was also assessed (Figure 3B–D).
(§2) Binding inhibition assays were performed in a 96-well cell-free format as described before. Briefly, microtiter plates (Nunc F Maxisorp, 96-well; Thermo Fisher Scientific, Waltham, MA, USA) were coated overnight at 4 °C with 100 μL/well of Fc-conjugated receptors diluted in PBS pH 7.2. This was followed by blocking with 200 μL/well of blocking solution (PBS pH 7.2, 0.05% Tween-20, 1% BSA) for 1 h at RT. Then, plates were washed twice using washing solution (PBS pH 7.4, 0.05% Tween-20) and tapped dry before the addition of the appropriate FLAG tagged ligands along with different concentrations of tested dyes diluted in binding buffer (100 mM HEPES, 0.005% BSA pH 7.2) to give a total volume of 100 μL/well. After 1 h incubation, three washes were conducted, and anti-FLAG HRP conjugate was used to detect the bound FLAG-tagged ligand. Plates were washed four times before the addition of 120 μL/well of HRP substrate TMB (3,3′,5,5′-tetramethylbenzidine) and kept in the dark for up to 15 min. The reaction was stopped using 30 μL of 1M H2SO4, and the absorbance value was read at 450 nm. The concentrations of receptors used were 0.3 μg/mL for CD40, TNF-R1, and BAFFR; 0.6 μg/mL for OX40. The concentrations of the ligands were fixed at 0.02 μg/mL for CD154 and TNF-α, 0.06 μg/mL for OX40L, and 0.03 μg/mL for BAFF. These values were selected following preliminary testing to optimize response (i.e., to produce a high-enough signal at conditions close to half-maximal response, EC50). […] To verify that inhibition is not due to colloidal aggregation, CD40 binding inhibition was also measured in the presence of the non-ionic detergent Triton-X 100 (0.01%), as recommended for the detection of such effects.
(§3) All binding inhibition and cell assays were tested in duplicate or triplicate per plates, and assays were performed as at least three independent experiments. As before, binding and cytotoxicity data were converted to percent inhibition and fitted with standard log inhibitor vs. normalized response models using nonlinear regression in GraphPad Prism (GraphPad, La Jolla, CA, USA) to establish half-maximal (median) inhibitory concentration (IC50) or median lethal concentration (LC50) values. Cell assay data were fitted with a similar model that also allowed for a variable slope using the log inhibitor vs. normalized response (variable slope) model from Prism with a Hill slope (n) shared across all compounds. Cell assays and draining lymph node data were analyzed by one-way repeated-measures analysis of variance (ANOVA) followed by Dunnett’s multiple comparison test as a post hoc test for individual differences using GraphPad Prism and a significance level of p < 0.05 for all comparisons.
(§4) Data are (counterclockwise) for human CD40–CD154 (CD40L) (A); OX40–OX40L (B); BAFFR–BAFF (C); and TNF-R1–TNFα (D) and were fitted with standard binding curves. Data are average ± SD (normalized to percent binding) for n = 3 independent experiments with duplicates for each condition.

CD40–CD154 (CD40L) = molecular target: T2, CD40–CD154 (CD40L) (Homo sapiens, UniProt P29965); assay: cell-free ELISA-type binding inhibition assay, CD40–CD154; settings: for IC50: cell-free CD40–CD154 binding inhibition, read-out: CD40 IC50; for selectivity toward CD40–CD154 against all other PPIs tested: vs OX40–OX40L, BAFFR–BAFF, TNF-R1–TNF-α
T2 construct: purchased Enzo Life Sciences
T2 sequence (P29965 116-261 limits assumed): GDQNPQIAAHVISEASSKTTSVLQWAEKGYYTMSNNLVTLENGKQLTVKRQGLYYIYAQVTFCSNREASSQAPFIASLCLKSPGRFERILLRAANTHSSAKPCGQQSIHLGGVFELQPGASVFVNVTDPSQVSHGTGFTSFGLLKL
From the text: As a first assessment, the CD40–CD154 inhibitory activity of compounds 6–19 (Figure 2, Table 1) was quantified using a cell-free in vitro binding inhibition assay as described before. Data fitted with typical sigmoidal concentration dependence curves (log inhibitor versus response model in GraphPad Prism, Hill slope n = 1) are summarized in Figure 3A. […] Polymolecular conglomeration and/or aggregation is often a cause of promiscuous inhibition in screening assays. Therefore, just as in our previous work, we checked for this, and we confirmed for several compounds that inhibition due to aggregation is not the case by retesting inhibitory activity in the presence of a non-ionic detergent (Triton-X 100, 0.01%) as recommended for the detection of such effects.
as §2, §3, §4

[1] = tested on: alloantigen-induced T cell response in draining popliteal lymph node; assay: alloantigen-induced T cell expansion in draining lymph node; assay type: in vivo, mouse (Balb/c); settings: Balb/c mice, DBA-2 splenocytes in footpad; 10–20 mg/kg s.c. b.i.d.; p < 0.0001 vs vehicle
Experimental: The most promising compounds of the present series were evaluated for in vivo activity using the same model of alloantigen-induced T cell expansion in the draining lymph nodes (DLNs) that was described before. This procedure involved injection of splenocytes isolated from DBA-2 mice into the footpad of Balb/c recipients. Within three full days, this causes a significant increase in the number of cells in the draining popliteal lymph node, and this is inhibited by compounds with immunosuppressive activity.
The ability to inhibit alloantigen-induced T cell response in a draining lymph node was tested as described before. In brief, BALB/c mice (10–12 weeks old, female) received a footpad injection of 1 × 10^7 splenocytes isolated from DBA-2 mice (10–12 weeks old, male). CD154 antibody (MR-1; 20 mg/kg, day −1 and 0) or test compounds (20–60 mg/kg; b.i.d. from day −1 to 3, in 20% HPβCD) were administered s.c., and the draining popliteal lymph nodes (DLNs) were collected 3 days after the alloantigen challenge. DLN cells were counted and data are shown as mean ± SD (n = 3–4 per group).
as §3
Figure 6 Inhibition of alloantigen-induced T cell response in a draining lymph node by compounds 6, 15, 18, and 19. Mice (Balb/c) received a footpad injection of allogeneic splenocytes (isolated from DBA-2 mice) and were treated with anti-CD154 antibody (MR-1; 20 mg/kg, day −1 and 0) or compounds as shown (10–40 mg/kg, b.i.d. from day −1 to 3, s.c. in 20% HPβCD). Draining (popliteal) lymph nodes were collected three days after the alloantigen challenge and cells were counted. Data are shown as mean ± SD. Significant differences compared to vehicle-treated controls are indicated by asterisks (**** p < 0.0001; one-way ANOVA followed by Dunnett’s multiple comparison test).

TNF-R1–TNFα = molecular target: T3, TNF-R1–TNFα (Homo sapiens, UniProt P01375); assay: cell-free ELISA-type binding inhibition assay, TNF-R1–TNFα
T3 construct: purchased Enzo Life Sciences
T3 sequence (P01375 85-233 limits assumed): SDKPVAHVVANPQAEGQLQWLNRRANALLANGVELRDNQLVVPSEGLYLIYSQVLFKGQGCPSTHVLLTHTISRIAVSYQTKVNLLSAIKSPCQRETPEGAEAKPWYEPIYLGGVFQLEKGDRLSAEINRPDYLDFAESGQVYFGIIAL
Experimental: as §1, §2, §3, §4

[2] = cell-free TNF-R1–TNFα binding inhibition, read-out: TNF IC50

| Structure (SMILES) | IC50 (OX40–OX40L) [µM] | IC50 (CD40–CD154 (CD40L)) [nM] | inhibition of alloantigen-induced T cell expansion in draining lymph node [1] | IC50 (TNF-R1–TNFα; [2]) [µM] | selectivity toward CD40–CD154 against all other PPIs tested (CD40–CD154 (CD40L)) [fold] | selectivity toward CD40–CD154 against all other PPIs tested (CD40–CD154 (CD40L); listed as DRI-C21095) | IC50 (TNF-R1–TNFα; cell-free binding inhibition, read-out: TNF-R1–TNF IC50) [µM] |
| --- | --- | --- | --- | --- | --- | --- | --- |
| O=C(Nc1ccc(-c2ccc(C(=O)Nc3cccc4cccc(S(=O)(=O)O)c34)cc2)cc1)c1ccc([N+](=O)[O-])cc1 [Compound 6, 8-(4′-(4-Nitrobenzamido)biphenyl-4-ylcarboxamido)naphthalene-1-sulfonic acid] | 318 | 87 | highly significant inhibitory activity; also recorded: inhibited the alloantigen-induced T cell response in this model in statistically significant manner | > 1000 | – | – | – |
| O=C(Nc1ccc(-c2ccc(C(=O)Nc3cccc4cccc(S(=O)(=O)O)c34)cc2)nc1)c1ccc([N+](=O)[O-])cc1 [Compound 18, 8-(4-(5-(4-Nitrobenzamido)pyridin-2-yl)benzamido)naphthalene-1-sulfonic acid] | 5.48 | 1340 | highly significant inhibitory activity; also recorded: inhibited the alloantigen-induced T cell response in this model in statistically significant manner | 46.9 | – | – | – |
| COC(=O)c1ccc(-c2ccc(C(=O)Nc3ccc(-c4ccc(C(=O)Nc5cccc6cccc(S(=O)(=O)O)c56)cc4)cc3)cc2)cc1 [Compound 15, 8-(4′-(4′-(Methoxycarbonyl)-[1,1′-biphenyl]-4-carboxamido)-[1,1′-biphenyl]-4-carboxamido)naphthalene-1-sulfonic acid] | 1.01 | 19 | highly significant inhibitory activity; also recorded: inhibited the alloantigen-induced T cell response in this model in statistically significant manner | 26.5 | > 30 | more than thirty-fold | 26.5 |
